Consider three compounds from patent EP2221053A1, “Pharmaceutical composition comprising protein methyltransferase I inhibitors and its use for treating tumour diseases” (Albert-Ludwigs-Universität Freiburg, priority 2009, dated 2010).

Like-named read-outs stand apart in the source and are kept apart here.

The target of test [1] is T1, SET7/9 (Homo sapiens, UniProt Q8WTS6).
T1 sequence (Q8WTS6 1-366): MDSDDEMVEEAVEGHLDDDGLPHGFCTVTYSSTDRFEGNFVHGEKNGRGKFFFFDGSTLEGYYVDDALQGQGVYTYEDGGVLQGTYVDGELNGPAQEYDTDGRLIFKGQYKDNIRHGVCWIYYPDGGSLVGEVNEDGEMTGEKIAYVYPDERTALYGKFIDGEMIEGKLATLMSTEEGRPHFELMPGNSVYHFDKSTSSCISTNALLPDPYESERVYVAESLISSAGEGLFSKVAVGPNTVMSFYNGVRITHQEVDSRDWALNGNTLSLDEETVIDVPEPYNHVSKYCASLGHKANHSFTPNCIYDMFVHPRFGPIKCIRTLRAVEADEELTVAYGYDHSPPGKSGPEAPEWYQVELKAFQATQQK
The settings on record: as described, Cheng et al.; cited from earlier work.

For test [2], the target named is T2, PRMT1 (Homo sapiens, UniProt Q99873). The settings on record: in-vitro, Cheng et al.; cited from earlier work.
Target sequence in this assay (Q99873 whole entry, species assumed): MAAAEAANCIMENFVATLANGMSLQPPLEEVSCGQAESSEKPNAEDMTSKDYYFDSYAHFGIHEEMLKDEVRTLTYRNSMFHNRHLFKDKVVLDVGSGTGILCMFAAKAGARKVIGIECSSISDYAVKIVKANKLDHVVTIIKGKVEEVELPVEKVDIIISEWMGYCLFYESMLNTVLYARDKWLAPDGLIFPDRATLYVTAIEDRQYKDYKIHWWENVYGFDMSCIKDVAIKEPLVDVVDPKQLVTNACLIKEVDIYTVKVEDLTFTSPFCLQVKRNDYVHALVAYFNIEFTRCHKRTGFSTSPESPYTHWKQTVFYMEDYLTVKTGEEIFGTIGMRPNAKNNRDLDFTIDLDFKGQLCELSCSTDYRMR
In test [3] the target is T1, SET7/9. The test can be described thus: In vitro selectivity test against lysine methyltransferase. Format: biochemical. An excerpt:
Für die Enzymhemmung wurde ein Assay verwendet, der auf immobilisierten Oligopeptiden als Enzymsubstrate und den entsprechenden Enzymen beruht. Die Quantifizierung der Methylierung erfolgt über einen Antikörper gegen das Dimethylarginin und die Detektion über einen Europium gelabelten Sekundärantikörper. Die potentesten Verbindungen wurden ebenfalls in-vitro auf ihre Selektivität gegenüber SET7/9, einer Lysinmonomethyltransferase untersucht. Die Methodik der verwendeten Testverfahren ist im Detail in der Dissertation von Astrid Spannhoff, "Neue Testsysteme für Histonmethyltransferasen und Histondemethylasen", Albert-Ludwigs-Universität Freiburg, 2007 beschrieben. Der Offenbarungsgehalt dieser Arbeit wird durch Bezugnahme hier eingeschlossen.

The target of test [4] is T2, PRMT1. The test can be described thus: Target-based virtual screening combined with biochemical test, PRMT inhibition of known inhibitors.
Target sequence in this assay (Q99873 whole entry): as the sequence (Q99873 whole entry, species assumed) above

As to `O=C(Nc1ccc2c(O)cc(S(=O)(=O)O)cc2c1)Nc1ccc2c(O)cc(S(=O)(=O)O)cc2c1` [AMI-1], the “Selektivität gegenüber der Lysinmethyltransferase SET7/9” value on SET7/9 [1] is given as “selektiv”.

With `O.O.O.O=C([O-])c1ccccc1-c1c2cc(Br)c(=O)c(Br)c-2oc2c(Br)c([O-])c(Br)cc12.[Na+].[Na+]` [AMI-5], the “Selektivität gegenüber der Lysinmethyltransferase SET7/9” value on SET7/9 [1] is reported as “dualer Inhibitor”. Moreover, at PRMT1 [2], the IC50 was 1400 nM.

For the compound Allantodapson, the 50% inhibitory concentration (IC50) at SET7/9 [3] is 11000 nM; on PRMT1 [4] (inhibitors of PRMT from target-based screening), 1700 nM. In addition, on PRMT1 [4] (conclusion from docking and competition experiments), the “Mode of inhibition (Docking- und Kompetitionsexperimente)” value is “zum Sustrat kompetitive Verbindungen”.

By IC50 is commonly meant the concentration needed to halve the response being measured.
